Experimental findings from US20260344665A1, “FUNGICIDAL COMPOUND” (priority 2022, published 2026) are described below.

SMILES strings stand for the structures. Where two headings read alike, the source gives them in different places.

Assay [1] has as its system Puccinia recondita f. sp. tritici. In words: Puccinia recondita f. sp. tritici / wheat / leaf disc preventative (brown rust). Particulars: for % reduction fungal growth: wheat, preventive. In kind it is in vivo. The protocol:
(§1) Leaf disks or leaf segments of various plant species were cut from plants grown in the greenhouse. The cut leaf discs or segments were placed in multiwell plates (24-well format) onto water agar. The leaf disks were sprayed with a test solution before (preventative) or after (curative) inoculation. Compounds to be tested were prepared as water solutions (max. 10 mg/ml) which were diluted to the appropriate concentration with 0.025% Tween20 just before spraying. The inoculated leaf discs or segments were incubated under defined conditions (temperature, relative humidity, light, etc.) according to the respective test system. A single evaluation of disease level was carried out 3-9 days days after inoculation, depending on the pathosystem. Percent disease control relative to the untreated check leaf discs or segments was then calculated.
Puccinia recondita f. sp. tritici/Wheat/Leaf Disc Preventative (Brown Rust)
Wheat leaf segments cv. Kanzler were placed on agar in multiwell plates (24-well format) and sprayed with the formulated test compound diluted in water. The leaf disks were inoculated with a spore suspension of the fungus 1 day after application. The inoculated leaf segments were incubated at 19 °C and 75% rh under a light regime of 12 h light/12 h darkness in a climate cabinet and the activity of a compound was assessed as percent disease control compared to untreated leaf when an appropriate level of disease damage appeared in untreated check leaf segments (7-9 days after application).

For a further assay, the system named is several fungal species. The assay is described as follows: Leaf disc or leaf segment tests, summary over several fungal species. In kind it is in vivo. Particulars: foliar; leaf disc and leaf segment tests; read-out: concentration from which fungal growth is reduced. The protocol:
as §1
Wheat leaf segments cv. Kanzler were placed on agar in multiwell plates (24-well format) and sprayed with the formulated test compound diluted in water. […] The inoculated leaf segments were incubated at 19 °C and 75% rh under a light regime of 12 h light/12 h darkness in a climate cabinet and the activity of a compound was assessed as percent disease control compared to untreated leaf when an appropriate level of disease damage appeared in untreated check leaf segments (7-9 days after application). […]

A further assay has as its system Magnaporthe grisea. Format: in vivo, Magnaporthe grisea (Pyricularia oryzae). The following applies: rice, preventive.

`CC(=O)NC1C(OCC(OC2OC(CO)C(O)C(O)C2O)C2OC(OC3C(O)C(CO)OC(OC4(CO)OC(C(O)CO)C(O)C4OC4OC(CO)C(O)C(O)C4O)C3O)C(O)C(O)C2OC2OC(C(O)CO)C(O)C(O)C2OC2OCC(OC(N)=O)C(O)C2O)OC(CO)C(O)C1O` (centres unmarked) [compound of Formula (I)]: the “preventive activity to control Puccinia recondita” value in assay [1] was “preventive (application of compound followed by infection with pathogen)”. In addition, the “% reduction fungal growth” value in assay [1] (0.80 ppm) was found to be 0%; in assay [1] (2.50 ppm), 0%; in assay [1] (7.40 ppm) it was 0%; in assay [1] (22.00 ppm), 0%; in assay [1] (67.00 ppm), 45%; in assay [1] (200.00 ppm), 95%. Moreover, the “% reduction fungal growth” value in the assay on Magnaporthe grisea (0.80 ppm) was found to be 0%; in the assay on Magnaporthe grisea (2.50 ppm), 0%; with Magnaporthe grisea (7.40 ppm), 0%; with Magnaporthe grisea (22.00 ppm) it was 60%; in the assay on Magnaporthe grisea (67.00 ppm), 70%; with Magnaporthe grisea (200.00 ppm), 100%. In the assay on several fungal species, the minimal effective concentration is not below 22 µg/mL.
